Results reported in publication PMC5218480 (PLoS ONE, 2017).

System: MV-4-11 cells
Test: Gene expression microarray analysis (Affymetrix PrimeView) and GSEA
Assay type: cell-based, human
Parameters: RFU PODN (11730768_x_at) / Fold change /veh PODN (11730768_x_at) / RFU LINC00158 (11744669_a_at) / Fold change /veh LINC00158 (11744669_a_at) / RFU DUSP10 (11751237_a_at) / Fold change /veh DUSP10 (11751237_a_at) / RFU ID3 (11757404_x_at) / Fold change /veh ID3 (11757404_x_at) / RFU PLEKHG5 (11737974_s_at) / Fold change /veh PLEKHG5 (11737974_s_at) / RFU LRRC4B (11730491_at) / Fold change /veh LRRC4B (11730491_at) / RFU GIMAP4 (11747438_a_at) / Fold change /veh GIMAP4 (11747438_a_at) / RFU KRT8 (11758183_x_at) / Fold change /veh KRT8 (11758183_x_at) / RFU CNN1 (11734310_a_at) / Fold change /veh CNN1 (11734310_a_at) / RFU VPS37D (11726825_at) / Fold change /veh VPS37D (11726825_at) / RFU C10orf10 (11716522_x_at) / Fold change /veh C10orf10 (11716522_x_at) / RFU KIR2DL2 /// KIR2DL4 /// KIR2DL5A /// KIR2DL5B /// KIR2DS1 /// KIR2DS2 /// KIR2DS3 /// KIR2DS4 /// KIR3DL3 /// KIR3DL3 /// KIR3DS1 (11738374_at) / Fold change /veh KIR2DL2 /// KIR2DL4 /// KIR2DL5A /// KIR2DL5B /// KIR2DS1 /// KIR2DS2 /// KIR2DS3 /// KIR2DS4 /// KIR3DL3 /// KIR3DL3 /// KIR3DS1 (11738374_at) / RFU C1QL1 (11718748_at) / Fold change /veh C1QL1 (11718748_at) / RFU TMPRSS4 (11747572_a_at) / Fold change /veh TMPRSS4 (11747572_a_at) / RFU HAMP (11756126_x_at) / Fold change /veh HAMP (11756126_x_at) / RFU RNFT2 (11725882_a_at) / Fold change /veh RNFT2 (11725882_a_at) / RFU NR4A2 (11747474_a_at) / Fold change /veh NR4A2 (11747474_a_at) / RFU ABCC12 (11746883_a_at) / Fold change /veh ABCC12 (11746883_a_at) / RFU TMEM136 (11760407_x_at) / Fold change /veh TMEM136 (11760407_x_at) / RFU CLDN22 /// WWC2 (11732394_at) / Fold change /veh CLDN22 /// WWC2 (11732394_at) / RFU HLA-DPB1 (11760878_x_at) / Fold change /veh HLA-DPB1 (11760878_x_at) / RFU SPINT1 (11716480_a_at) / Fold change /veh SPINT1 (11716480_a_at) / RFU GAP43 (11754022_s_at) / Fold change /veh GAP43 (11754022_s_at) / RFU A4GNT (11735810_at) / Fold change /veh A4GNT (11735810_at) / RFU PRB3 (11715151_x_at) / Fold change /veh PRB3 (11715151_x_at) / RFU TUBB4B (11761932_at) / Fold change /veh TUBB4B (11761932_at) / RFU CAPN14 (11732068_a_at) / Fold change /veh CAPN14 (11732068_a_at) / RFU TMCC2 (11721928_a_at) / Fold change /veh TMCC2 (11721928_a_at) / RFU IRGQ (11745062_a_at) / Fold change /veh IRGQ (11745062_a_at) / RFU FAM174B (11720279_a_at) / Fold change /veh FAM174B (11720279_a_at) / RFU TMPRSS4 (11748680_a_at) / Fold change /veh TMPRSS4 (11748680_a_at) / RFU FAM212B (11763350_a_at) / Fold change /veh FAM212B (11763350_a_at) / RFU PLEKHG5 (11743358_a_at) / Fold change /veh PLEKHG5 (11743358_a_at) / RFU ZSCAN30 (11745921_a_at) / Fold change /veh ZSCAN30 (11745921_a_at) / RFU CMKLR1 (11741424_a_at) / Fold change /veh CMKLR1 (11741424_a_at) / RFU LOC101060620 /// MAPK8IP1 (11723275_at) / Fold change /veh LOC101060620 /// MAPK8IP1 (11723275_at) / RFU SPTSSB (11747773_x_at) / Fold change /veh SPTSSB (11747773_x_at) / RFU PRSS12 (11739890_at) / Fold change /veh PRSS12 (11739890_at) / RFU BIN1 (11741810_x_at) / Fold change /veh BIN1 (11741810_x_at) / RFU WNT11 (11732464_a_at) / Fold change /veh WNT11 (11732464_a_at) / RFU C10orf10 (11716521_a_at) / Fold change /veh C10orf10 (11716521_a_at) / RFU C5orf56 (11738089_at) / Fold change /veh C5orf56 (11738089_at) / RFU CYB561 (11721691_x_at) / Fold change /veh CYB561 (11721691_x_at) / RFU ANKRD19P (11752326_a_at) / Fold change /veh ANKRD19P (11752326_a_at) / RFU OR2T12 /// OR2T33 /// OR2T8 (11738714_s_at) / Fold change /veh OR2T12 /// OR2T33 /// OR2T8 (11738714_s_at) / RFU VCAN (11748164_a_at) / Fold change /veh VCAN (11748164_a_at) / RFU JSRP1 (11732532_at) / Fold change /veh JSRP1 (11732532_at) / RFU KRTAP10-11 (11738290_x_at) / Fold change /veh KRTAP10-11 (11738290_x_at) / RFU MYO3A (11730013_a_at) / Fold change /veh MYO3A (11730013_a_at) / RFU EBF3 (11725865_a_at) / Fold change /veh EBF3 (11725865_a_at) / RFU CAMK2N1 (11719241_x_at) / Fold change /veh CAMK2N1 (11719241_x_at) / RFU C5orf56 (11738088_a_at) / Fold change /veh C5orf56 (11738088_a_at) / RFU OLFML3 (11715873_a_at) / Fold change /veh OLFML3 (11715873_a_at) / RFU LOC100653217 /// NTM (11731650_a_at) / Fold change /veh LOC100653217 /// NTM (11731650_a_at) / RFU MAPK11 (11762145_a_at) / Fold change /veh MAPK11 (11762145_a_at) / RFU FIZ1 (11724087_x_at) / Fold change /veh FIZ1 (11724087_x_at) / RFU OASL (11726364_x_at) / Fold change /veh OASL (11726364_x_at) / RFU SOX15 (11748057_x_at) / Fold change /veh SOX15 (11748057_x_at) / RFU CD79A (11719716_a_at) / Fold change /veh CD79A (11719716_a_at) / RFU HIST1H1D (11736915_at) / Fold change /veh HIST1H1D (11736915_at) / RFU CASKIN2 (11723855_a_at) / Fold change /veh CASKIN2 (11723855_a_at) / RFU LOC730098 (11760151_x_at) / Fold change /veh LOC730098 (11760151_x_at) / RFU OR4N2 (11742367_at) / Fold change /veh OR4N2 (11742367_at) / RFU PRRT2 (11749266_a_at) / Fold change /veh PRRT2 (11749266_a_at) / RFU SNX32 (11753110_a_at) / Fold change /veh SNX32 (11753110_a_at) / RFU CDHR5 (11726645_a_at) / Fold change /veh CDHR5 (11726645_a_at) / RFU RCAN1 (11760418_a_at) / Fold change /veh RCAN1 (11760418_a_at) / RFU FAM167A (11723789_a_at) / Fold change /veh FAM167A (11723789_a_at) / RFU FAM26E (11764081_at) / Fold change /veh FAM26E (11764081_at) / RFU ISYNA1 (11749810_s_at) / Fold change /veh ISYNA1 (11749810_s_at) / RFU ACY1 (11761880_at) / Fold change /veh ACY1 (11761880_at) / RFU 11764098_at / Fold change /veh 11764098_at / RFU SAMD14 (11745864_x_at) / Fold change /veh SAMD14 (11745864_x_at) / RFU NPB (11741838_a_at) / Fold change /veh NPB (11741838_a_at) / RFU TMPRSS6 (11731388_a_at) / Fold change /veh TMPRSS6 (11731388_a_at) / RFU KRTAP10-2 (11738614_at) / Fold change /veh KRTAP10-2 (11738614_at) / RFU ARHGAP8 /// PRR5-ARHGAP8 (11727945_x_at) / Fold change /veh ARHGAP8 /// PRR5-ARHGAP8 (11727945_x_at) / RFU KRTAP5-7 /// NADSYN1 (11734609_at) / Fold change /veh KRTAP5-7 /// NADSYN1 (11734609_at) / RFU RASL12 (11751679_a_at) / Fold change /veh RASL12 (11751679_a_at) / RFU CDKN2B (11736163_a_at) / Fold change /veh CDKN2B (11736163_a_at) / RFU PRF1 (11729649_at) / Fold change /veh PRF1 (11729649_at) / RFU, ZNF638 /// ZNF638-IT1 / Fold change vs veh, ZNF638 /// ZNF638-IT1 / RFU, PANK3 / Fold change vs veh, PANK3 / RFU, SH3YL1 / Fold change vs veh, SH3YL1 / RFU, ZEB2 / Fold change vs veh, ZEB2 / RFU, NRIP1 / Fold change vs veh, NRIP1 / RFU, PTTG1IP / Fold change vs veh, PTTG1IP / RFU, CAPN2 / Fold change vs veh, CAPN2 / RFU, MED14 / Fold change vs veh, MED14 / RFU, SNORA58 / Fold change vs veh, SNORA58 / RFU, C1orf63 / Fold change vs veh, C1orf63 / RFU, LRRFIP1 / Fold change vs veh, LRRFIP1 / RFU, NDUFAF7 / Fold change vs veh, NDUFAF7 / RFU, SLC12A2 / Fold change vs veh, SLC12A2 / RFU, IBTK / Fold change vs veh, IBTK / RFU, ESF1 / Fold change vs veh, ESF1 / Fold change vs veh, TMEM50B / RFU, TAOK1 / Fold change vs veh, TAOK1 / RFU, ACBD3 / Fold change vs veh, ACBD3 / RFU, TMA16 / Fold change vs veh, TMA16 / RFU, RWDD3 / Fold change vs veh, RWDD3 / RFU, BCAT1 / Fold change vs veh, BCAT1 / RFU, EDEM3 / Fold change vs veh, EDEM3 / RFU, TMEM33 / Fold change vs veh, TMEM33 / RFU, WDR75 / Fold change vs veh, WDR75 / RFU, AHCTF1 / Fold change vs veh, AHCTF1 / RFU, TFRC / Fold change vs veh, TFRC / RFU, ZDHHC17 / Fold change vs veh, ZDHHC17 / RFU, NOM1 / Fold change vs veh, NOM1 / RFU, ARL8B / Fold change vs veh, ARL8B / RFU, ZBTB11 / Fold change vs veh, ZBTB11 / RFU, TAMM41 / Fold change vs veh, TAMM41 / RFU, KIAA1704 /// LOC100996395 / Fold change vs veh, KIAA1704 /// LOC100996395 / RFU, ING1 / Fold change vs veh, ING1 / RFU, TRMT61B / Fold change vs veh, TRMT61B / RFU, FUBP3 / Fold change vs veh, FUBP3 / RFU, TP53 / Fold change vs veh, TP53 / RFU, TNKS2 / Fold change vs veh, TNKS2 / RFU, ZFP14 / Fold change vs veh, ZFP14 / RFU, ACTR2 / Fold change vs veh, ACTR2 / RFU, PPP3R1 / Fold change vs veh, PPP3R1 / RFU, PIK3R1 / Fold change vs veh, PIK3R1 / RFU, HNRNPA1 / Fold change vs veh, HNRNPA1 / RFU, RNF170 / Fold change vs veh, RNF170 / RFU, ZNF28 / Fold change vs veh, ZNF28 / RFU, RNGTT / Fold change vs veh, RNGTT / RFU, OGT / Fold change vs veh, OGT / RFU, BRD1 / Fold change vs veh, BRD1 / RFU, MARS / Fold change vs veh, MARS / RFU, ZNF655 / Fold change vs veh, ZNF655 / RFU, FAHD1 / Fold change vs veh, FAHD1 / RFU, BDP1 / Fold change vs veh, BDP1 / RFU, LRRCC1 / Fold change vs veh, LRRCC1 / RFU, ARID1A / Fold change vs veh, ARID1A / RFU, ZNF146 / Fold change vs veh, ZNF146 / RFU, ZNF330 / Fold change vs veh, ZNF330 / RFU, GPN3 / Fold change vs veh, GPN3 / RFU, C9orf123 / Fold change vs veh, C9orf123 / RFU, N4BP2L2 / Fold change vs veh, N4BP2L2 / RFU, ARFIP1 / Fold change vs veh, ARFIP1 / RFU, FAM179B / Fold change vs veh, FAM179B / RFU, BCL10 / Fold change vs veh, BCL10 / RFU, UHRF1BP1L / Fold change vs veh, UHRF1BP1L / RFU, BET1 / Fold change vs veh, BET1 / RFU, CNOT2 / Fold change vs veh, CNOT2 / RFU, ZNF268 / Fold change vs veh, ZNF268 / Fold change vs veh, ZNF507 / RFU, DGCR2 / Fold change vs veh, DGCR2 / RFU, WDSUB1 / Fold change vs veh, WDSUB1 / Fold change vs veh, HSP90B1 /// MIR3652 / RFU, ADSS / Fold change vs veh, ADSS / RFU, GK / Fold change vs veh, GK / RFU, ZNF148 / Fold change vs veh, ZNF148 / RFU, TAF9 / Fold change vs veh, TAF9 / RFU, SLC1A5 / Fold change vs veh, SLC1A5 / RFU, SLMO2 / Fold change vs veh, SLMO2 / RFU, ABCC4 / Fold change vs veh, ABCC4 / RFU, LOC101060439 /// RAP1B / Fold change vs veh, LOC101060439 /// RAP1B / RFU, RFX7 / Fold change vs veh, RFX7 / RFU, GTPBP10 / Fold change vs veh, GTPBP10 / RFU, CNEP1R1 / Fold change vs veh, CNEP1R1 / RFU, BIVM-ERCC5 /// ERCC5 / Fold change vs veh, BIVM-ERCC5 /// ERCC5 / RFU, ILF3 / Fold change vs veh, ILF3 / RFU 11762660_at / Fold change /veh 11762660_at / RFU VCAN (11757783_s_at) / Fold change /veh VCAN (11757783_s_at) / RFU DDX43 (11728927_at) / Fold change /veh DDX43 (11728927_at) / RFU KRT8 (11758188_x_at) / Fold change /veh KRT8 (11758188_x_at) / RFU NKD1 (11759106_at) / Fold change /veh NKD1 (11759106_at) / RFU SRD5A1 (11742802_a_at) / Fold change /veh SRD5A1 (11742802_a_at) / RFU TPSAB1 /// TPSB2 (11721975_s_at) / Fold change /veh TPSAB1 /// TPSB2 (11721975_s_at) / RFU GSTM3 (11746129_a_at) / Fold change /veh GSTM3 (11746129_a_at) / RFU IL23R (11737362_x_at) / Fold change /veh IL23R (11737362_x_at) / RFU TMEM51 (11727254_a_at) / Fold change /veh TMEM51 (11727254_a_at) / RFU PIWIL2 (11732686_x_at) / Fold change /veh PIWIL2 (11732686_x_at) / RFU ORM1 (11744905_x_at) / Fold change /veh ORM1 (11744905_x_at) / RFU CCDC152 (11743942_at) / Fold change /veh CCDC152 (11743942_at) / RFU ECM1 (11717891_a_at) / Fold change /veh ECM1 (11717891_a_at) / RFU IL23R (11748794_a_at) / Fold change /veh IL23R (11748794_a_at) / RFU TNFAIP8L3 (11732012_x_at) / Fold change /veh TNFAIP8L3 (11732012_x_at) / RFU MBOAT4 (11741988_at) / Fold change /veh MBOAT4 (11741988_at) / RFU 11764193_at / Fold change /veh 11764193_at / RFU TMEM53 (11763286_at) / Fold change /veh TMEM53 (11763286_at) / RFU MAGEB2 (11727129_at) / Fold change /veh MAGEB2 (11727129_at) / RFU TMEM200A (11744735_a_at) / Fold change /veh TMEM200A (11744735_a_at) / RFU CCDC152 (11751479_a_at) / Fold change /veh CCDC152 (11751479_a_at) / RFU FAM211A (11726209_a_at) / Fold change /veh FAM211A (11726209_a_at) / RFU RGS16 (11746705_a_at) / Fold change /veh RGS16 (11746705_a_at) / RFU VCAN (11755009_s_at) / Fold change /veh VCAN (11755009_s_at) / RFU RHOB (11743442_s_at) / Fold change /veh RHOB (11743442_s_at) / RFU RGS16 (11720943_a_at) / Fold change /veh RGS16 (11720943_a_at) / RFU RGS16 (11720944_at) / Fold change /veh RGS16 (11720944_at) / RFU, VPS4B / Fold change vs veh, VPS4B / RFU, CREB1 / Fold change vs veh, CREB1 / RFU, DNAJC13 / Fold change vs veh, DNAJC13 / RFU, GNAQ / Fold change vs veh, GNAQ / RFU, CDK5R1 / Fold change vs veh, CDK5R1 / RFU, ZRANB3 / Fold change vs veh, ZRANB3 / RFU, CUL4A / Fold change vs veh, CUL4A / RFU, CCNY / Fold change vs veh, CCNY / RFU, UFL1 / Fold change vs veh, UFL1 / RFU, COG3 / Fold change vs veh, COG3 / RFU, DIAPH2 / Fold change vs veh, DIAPH2 / RFU, SKA2 / Fold change vs veh, SKA2 / RFU, AFF3 / Fold change vs veh, AFF3 / RFU, LMF1 / Fold change vs veh, LMF1 / RFU, IPO11 / Fold change vs veh, IPO11 / RFU, DFFB / Fold change vs veh, DFFB / RFU, FOXP1 / Fold change vs veh, FOXP1 / RFU, CARD8 / Fold change vs veh, CARD8 / RFU, STRN3 / Fold change vs veh, STRN3 / RFU, ADK / Fold change vs veh, ADK / RFU, RASSF2 / Fold change vs veh, RASSF2 / RFU, WIPF1 / Fold change vs veh, WIPF1 / RFU, LARP1B / Fold change vs veh, LARP1B / RFU, RASA1 / Fold change vs veh, RASA1 / RFU, RB1 / Fold change vs veh, RB1 / RFU, PPFIA1 / Fold change vs veh, PPFIA1 / RFU, MAT2A / Fold change vs veh, MAT2A / RFU, CCT5 / Fold change vs veh, CCT5 / RFU, WDR92 / Fold change vs veh, WDR92 / RFU, CUX1 / Fold change vs veh, CUX1 / RFU, TTC7A / Fold change vs veh, TTC7A / RFU, TMEM135 / Fold change vs veh, TMEM135 / RFU, DEPTOR / Fold change vs veh, DEPTOR / RFU, CPM / Fold change vs veh, CPM / RFU, DNAJB6 / Fold change vs veh, DNAJB6 / RFU, CACNA2D3 / Fold change vs veh, CACNA2D3 / RFU, DTX4 / Fold change vs veh, DTX4 / RFU, TFCP2 / Fold change vs veh, TFCP2 / RFU, GMCL1 /// GMCL1P1 / Fold change vs veh, GMCL1 /// GMCL1P1 / RFU, AEBP2 / Fold change vs veh, AEBP2 / RFU, SNHG1 /// SNORD22 /// SNORD25 /// SNORD26 /// SNORD27 /// SNORD28 /// SNORD29 /// SNORD31 / Fold change vs veh, SNHG1 /// SNORD22 /// SNORD25 /// SNORD26 /// SNORD27 /// SNORD28 /// SNORD29 /// SNORD31 / Fold change (Aza/veh), C12orf56 (ProbeSet 11735607_a_at) / Fold change (ACY-1035/veh), C12orf56 (ProbeSet 11735607_a_at) / Fold change (Aza/veh), FGFR1OP (ProbeSet 11751329_s_at) / Fold change (ACY-1035/veh), FGFR1OP (ProbeSet 11751329_s_at) / Fold change (Aza/veh), VPS36 (ProbeSet 11739960_a_at) / Fold change (ACY-1035/veh), VPS36 (ProbeSet 11739960_a_at) / RFU SYPL1 (11715823_x_at) / Fold change /veh SYPL1 (11715823_x_at) / RFU IGFBP7 (11715501_s_at) / Fold change /veh IGFBP7 (11715501_s_at) / RFU REEP3 (11722064_at) / Fold change /veh REEP3 (11722064_at) / RFU IGLL1 (11728026_x_at) / Fold change /veh IGLL1 (11728026_x_at): dose or concentration left out as unconfirmed
Conditions: ProbeSet 11743510_at; LIST D

For `Nc1ccc(-c2cccs2)cc1NC(=O)c1ccc2c(c1)cc(C1CC1)n2CCN1CCOCC1` [ACY-1035], which “Fold change vs veh, UFL1” value is on record?
The value was 0.85.
